Assay results from ChEMBL document CHEMBL4371067, “Discovery of N-substituted 7-azaindoles as Pan-PIM kinases inhibitors - Lead optimization - Part III” (Bioorg Med Chem Lett, 2019).
In brackets after ≈: the same amount, converted by molar mass.

Legend:
[1] = AUC (0 to infinity) in rat at 3 mg/kg, iv administered as single dose; type: ADME, organism-based; parameters: dose 3 mg/kg, route intravenous, time infinity; conditions: in vivo
[2] = Clearance in human liver microsomes assessed as drug extraction at 5 uM; type: ADME, Microsome; conditions: for hepatic extraction ratio at 5 µM: liver microsomes, read-out: CLH
[3] = AUC (0 to infinity) in rat at 10 mg/kg, po administered as single dose; type: ADME, organism-based; parameters: dose 10 mg/kg, route oral, time infinity; conditions: in vivo
[4] = biological target: Serine/threonine-protein kinase pim-1 (Homo sapiens, UniProt P11309); experiment: Inhibition of PIM1 (unknown origin) assessed as reduction in BAD phosphorylation at Ser-112 residue by TR-FRET assay
[5] = biological target: Serine/threonine-protein kinase PIM (Homo sapiens, UniProt P11309+Q9P1W9+Q86V86); experiment: Inhibition of PIM in human KG1 cells assessed as reduction in pS6 level; type: cell-based
[6] = Half life in rat at 3 mg/kg, iv administered as single dose; type: ADME, organism-based; conditions: in vivo
[7] = Clearance in mouse liver microsomes assessed as drug extraction at 5 uM; type: ADME, Microsome; conditions: for CLH: microsomes, 5 µM; for hepatic extraction ratio at 5 µM: liver microsomes, read-out: CLH
[8] = Thermodynamic solubility in pH 7.4 solution; type: physicochemical; conditions: buffer; for solubility thermodynamic: read-out: Therm_solubility
[9] = Oral bioavailability in rat at 10 mg/kg administered as single dose; type: ADME, organism-based; conditions: in vivo
[10] = biological target: Serine/threonine-protein kinase pim-2 (Homo sapiens, UniProt Q9P1W9); experiment: Inhibition of PIM2 (unknown origin) assessed as reduction in BAD phosphorylation at Ser-112 residue by TR-FRET assay
[11] = Half life in rat at 10 mg/kg, po administered as single dose; type: ADME, organism-based; conditions: in vivo
KG-1 = experiment: Antiproliferative activity against human KG1 cells; type: functional, cell-based
[12] = Clearance in rat at 3 mg/kg, iv administered as single dose; type: ADME, organism-based; conditions: in vivo
[13] = Cmax in rat at 10 mg/kg, po administered as single dose; type: ADME, organism-based; parameters: dose 10 mg/kg, route oral; conditions: in vivo
[14] = Permeability in human Caco2/TC7 cells at 5 uM; type: ADME, cell-based; conditions: for permeability: caco2/tc7, 5 µM, 5 µM; for Papp at 5 µM: Caco-2, read-out: permeability
[15] = Volume of distribution at steady state in rat at 3 mg/kg, iv administered as single dose; type: ADME, organism-based; conditions: in vivo, read-out: Vdss
[16] = biological target: Voltage-gated inwardly rectifying potassium channel KCNH2 (Homo sapiens, UniProt Q12809); experiment: Inhibition of human ERG
hERG (KCNH2) [17] = biological target: T1, hERG (KCNH2) (Homo sapiens, UniProt Q12809); experiment: Inhibition of human ERG at 10 uM relative to control
[18] = Efflux ratio of permeability in human Caco2/TC7 cells at 5 uM; type: ADME, cell-based; conditions: Caco-2
hERG (KCNH2) [19] = biological target: T1, hERG (KCNH2); experiment: Inhibition of human ERG at 1 uM relative to control

NC(=O)c1cc(Cl)c2c(Cl)c(C#CC3CCCO3)n([C@H]3CCCNC3)c2n1 (stereo in doubt; 20b)
AUC(0-inf) [1]: 324 ng·h/mL
CLH ([2]; microsomes, 5 µM): 24%
AUC(0-inf) [3]: 326 ng·h/mL
IC50 [4]: 2.2 nM
Ki [4]: 1.3 nM
EC50 [5]: 69 nM
half-life [6]: 2.32 h
CLH [7]: 37%
Therm_solubility [8]: 333 µM
bioavailability [9]: 30%
IC50 [10]: 7.4 nM
half-life [11]: 3.63 h
EC50 (KG-1; kg-1): 91 nM
clearance [12]: 150 mL/min/kg
Cmax [13]: 54 ng/mL
permeability [14]: 33 ×10⁻⁷ cm/s
Vd [15]: 19.6 L/kg

NC(=O)c1cc(Cl)c2c(Cl)c(C#CC3COCCO3)n([C@H]3CCCNC3)c2n1 (stereo in doubt; 22a)
hepatic extraction ratio at 5 µM [2]: 0.1
IC50 [4]: 2.3 nM
EC50 [5]: 70 nM
CLH [7]: 30%
IC50 [16]: 1400 nM
IC50 [10]: 8.8 nM
EC50 (KG-1; kg-1): 77 nM
permeability [14]: 81 ×10⁻⁷ cm/s

CN1CC(C#Cc2c(Cl)c3c(Cl)cc(C(N)=O)nc3n2[C@H]2CCCNC2)CC1=O (stereo not given in full)
hepatic extraction ratio at 5 µM [2]: 0.05
IC50 [4]: 3.1 nM
Ki [4]: 1.2 nM
EC50 [5]: 128 nM
hepatic extraction ratio at 5 µM [7]: 0.22
IC50 [16]: > 20000 nM
IC50 [10]: 17.5 nM
EC50 (KG-1; Homo sapiens, KG-1): 155 nM
Papp at 5 µM [14]: 0.05 ×10⁻⁶ cm/s

CC(C)(C#N)CC#Cc1c(Cl)c2c(Cl)cc(C(N)=O)nc2n1[C@H]1CCCNC1
hepatic extraction ratio at 5 µM [2]: 0.03
IC50 [4]: 5.8 nM
EC50 [5]: 90 nM
hepatic extraction ratio at 5 µM [7]: 0.08
IC50 [16]: 3000 nM
IC50 [10]: 29.4 nM
EC50 (KG-1; Homo sapiens, KG-1): 113 nM
Papp at 5 µM [14]: 6.5 ×10⁻⁶ cm/s

NC(=O)c1cc(Cl)c2c(Cl)c(C#CCCO)n([C@H]3CCCNC3)c2n1
hepatic extraction ratio at 5 µM [2]: 0
inhibition at 10 µM (hERG (KCNH2) [17]): 25%
IC50 [4]: 0.6 nM
Ki [4]: 0.1 nM
EC50 [5]: 18 nM
solubility thermodynamic [8]: 144 µM (≈ 54.9 µg/mL)
IC50 [10]: 2.7 nM
efflux ratio at 5 µM [18]: 8.8
EC50 (KG-1; Homo sapiens, KG-1): 56 nM
Papp at 5 µM [14]: 0.18 ×10⁻⁶ cm/s
inhibition at 1 µM (hERG (KCNH2) [19]): 12%

CC1(C#Cc2c(Cl)c3c(Cl)cc(C(N)=O)nc3n2[C@H]2CCCNC2)COC1
hepatic extraction ratio at 5 µM [2]: 0.05
IC50 [4]: 1.6 nM
Ki [4]: 1.2 nM
EC50 [5]: 37 nM
hepatic extraction ratio at 5 µM [7]: 0.19
IC50 [16]: 3000 nM
IC50 [10]: 5.7 nM
EC50 (KG-1; Homo sapiens, KG-1): 119 nM
Papp at 5 µM [14]: 2.9 ×10⁻⁶ cm/s

NC(=O)c1cc(Cl)c2c(Cl)c(C#CC3CCOCC3)n([C@H]3CCCNC3)c2n1
AUC(0-inf) [1]: 440 ng·h/mL
hepatic extraction ratio at 5 µM [2]: 0.07
AUC(0-inf) [3]: 979 ng·h/mL
IC50 [4]: 1.5 nM
EC50 [5]: 53 nM
half-life [6]: 7.41 h
hepatic extraction ratio at 5 µM [7]: 0.13
IC50 [16]: 1700 nM
bioavailability [9]: 67%
IC50 [10]: 10.2 nM
half-life [11]: 10.2 h
EC50 (KG-1; Homo sapiens, KG-1): 69 nM
clearance [12]: 102 mL/min/kg
Cmax [13]: 91 ng/mL
Papp at 5 µM [14]: 3.4 ×10⁻⁶ cm/s
Vd [15]: 63 L/kg

COCC(C)(C)C#Cc1c(Cl)c2c(Cl)cc(C(N)=O)nc2n1[C@H]1CCCNC1
hepatic extraction ratio at 5 µM [2]: 0.1
IC50 [4]: 1.6 nM
EC50 [5]: 98 nM
hepatic extraction ratio at 5 µM [7]: 0.32
IC50 [16]: 1100 nM
IC50 [10]: 4 nM
EC50 (KG-1; Homo sapiens, KG-1): 219 nM
Papp at 5 µM [14]: 4.8 ×10⁻⁶ cm/s

NC(=O)c1cc(Cl)c2c(Cl)c(C#CCO)n([C@H]3CCCNC3)c2n1
hepatic extraction ratio at 5 µM [2]: 0
inhibition at 10 µM (hERG (KCNH2) [17]): 28%
IC50 [4]: 1.7 nM
Ki [4]: 3 nM
EC50 [5]: 59 nM
IC50 [10]: 11 nM
efflux ratio at 5 µM [18]: 120
EC50 (KG-1; Homo sapiens, KG-1): 301 nM
Papp at 5 µM [14]: 0.08 ×10⁻⁶ cm/s
inhibition at 1 µM (hERG (KCNH2) [19]): 22%

COC(C)(C)CC#Cc1c(Cl)c2c(Cl)cc(C(N)=O)nc2n1[C@H]1CCCNC1
hepatic extraction ratio at 5 µM [2]: 0.12
IC50 [4]: 2.3 nM
EC50 [5]: 61 nM
hepatic extraction ratio at 5 µM [7]: 0.33
solubility thermodynamic [8]: 1.2 µM (≈ 0.508 µg/mL)
IC50 [16]: 4000 nM
IC50 [10]: 10.4 nM
EC50 (KG-1; Homo sapiens, KG-1): 172 nM
Papp at 5 µM [14]: 4.5 ×10⁻⁶ cm/s
